Experimental data published in article PMC7731379, “Withanolide-Type Steroids from Withania aristata as Potential Anti-Leukemic Agents” (Molecules, 2020).
Like-named read-outs stand apart in the source and are kept apart here.

Experiments:
[1] = test system: HL-60 (human promyelocytic leukemia cell line); test: MTT cell viability (antiproliferative) assay, HL-60; conditions: for SI (selectivity index): Vero (IC50) on HL-60 (IC50); for IC50: mean ± SD of three independent experiments
Method: (§1) HL-60 (human promyelocytic leukemia cell line) and Vero (African green monkey kidney) cell lines from American Type Culture Collection (ATCC-LGC) were each grown in Dulbecco’s modified Eagle’s medium (DMEM) with 4.5 g/L glucose (Sigma-Aldrich), supplemented with 10% fetal bovine serum (Gibco), 1% of a penicillin–streptomycin mixture (10.000 and 10 mg/mL, respectively), and 200 mM L-glutamine. Cells were maintained at 37 °C in 5% CO2 and 98% humidity.
(§2) Viable cells were assessed using the colorimetric MTT [3-(4,5-dimethylthiazol-2-yl)-2,5-diphenyl tetrazolium bromide reduction assay [49]. A cell suspension (1 × 10^4 /200 μL/well) in log-phase of growth seeded in DMEM, supplemented with 5% fetal bovine serum in microtiter well plates (96 wells, Iwaki, London, UK) were added to compounds predissolved in dimethylsulphoxide (DMSO) at different concentrations. After 48 h of incubation, 20 μL/well of the MTT solution (5 mg/mL in phosphate buffered saline, PBS) were added and plates incubated for 4 h at 37 °C. Subsequently, the medium/MTT solutions were removed carefully by aspiration and replaced with 150 μL/well of DMSO to dissolve the formazan crystals. Absorbance was measured in a microplate reader (Infinite M200, Tecan) at a wavelength of 550 nm. Solvent control cultures were considered 100% and percentage of viable treated cells were plotted against compound concentrations. The 50% cell viability value (IC50) was calculated from the curve. Each experiment was performed at least three times in triplicates. Data are given in arithmetic means ± SD. Selectivity ratio was defined as IC50 value for the tumoral cell line divided by IC50 value for the Vero cell line.

[2] = test system: Vero (African green monkey kidney) cell line; test: MTT cell viability assay, non-tumoral Vero cells; conditions: read-out: Cytotoxic activity IC50, Vero; MTT, 48 h incubation; mean ± SD of three independent experiments
Method: as §1, §2

[3] = MTT cell viability assay, non-tumoral Vero cells; conditions: African green monkey, Vero cells (African green monkey kidney, non-tumoral)
Method: as §1, §2

[4] = in vitro; conditions: African green monkey
Method: as §1, §2

[5] = test system: Vero (African green monkey kidney) cell line; conditions: 48 h
Method: as §1, §2

[6] = test system: HL-60 (human promyelocytic leukemia cell line); conditions: 48 h
Method: as §1, §2

[7] = read-out: Cytotoxic activity IC50, HL 60, MTT, 48 h incubation
[8] = Homo sapiens, HL-60, 48 h, read-out: Cytotoxic activity IC50, HL 60, MTT, 48 h incubation
[9] = Cytotoxic activity IC50, Vero, MTT, 48 h incubation, mean ± SD of three independent experiments

Row | Compound | SI (selectivity index) [1] | IC50 [1, 8] | IC50 at 48 h ([4]; Cytotoxic activity IC50, Vero) | also measured
1 | 4β,16β,27-trihydroxy-1-oxo-witha-2,5,17(20),24-tetraenolide [Compound 9] | 1.7 | – | – | IC50 [1, 7]: 14.8 ± 0.68 µM; IC50 [2]: 25.7 ± 0.65 µM
2 | 4β,16β-dihydroxy-1-oxo-witha-2,5,17(20),24-tetraenolide [Compound 10] | >2.4 | – | – | IC50 [1, 7]: 16.8 ± 0.75 µM; IC50 [2]: > 40 µM
3 | 16β,27-dihydroxy-1,4-dioxo-witha-2,5,17(20),24-tetraenolide [Compound 11] | >1.4 | – | – | IC50 [1, 7]: 27.8 ± 0.45 µM; IC50 [2]: > 40 µM
4 | CC1=C(CO)C(=O)OC(C(C)C2(O)CCC3C4CC(O)C56C=CC(OO5)C(=O)C6(C)C4CCC32C)C1 (stereo not drawn) [Compound 1, 6β,17α,27-Trihydroxy-2α,5α-dioxan-1-oxo-witha-3,24-dien-26,22-olide] | >3.1 | – | – | IC50 [1, 7]: 12.8 ± 0.24 µM; IC50 at 48 h [3]: > 40 µM
5 | CC1=C(CO)C(=O)OC(C(C)C2(O)CCC3C4CC(O)C56C=CC(OO5)C(=O)C6(C)C4CCC32C)C1 (stereo not drawn) [Compound 2, 6β,17α,27-Trihydroxy-2β,5β-dioxan-1-oxo-witha-3,24-dien-26,22-olide] | >1.5 | – | – | IC50 [1, 7]: 26.7 ± 0.6 µM; IC50 [2]: > 40 µM
6 | CC1=C(CO)C(=O)OC(C(C)C2CCC3C4CC(O)C56C=CC(OO5)C(=O)C6(C)C4CCC23C)C1 (stereo not drawn) [Compound 3, 6β,27-Dihydroxy-2α,5α-dioxan-1-oxo-witha-3,24-dien-26,22-olide] | 4.9 | 3.3 ± 0.45 µM | – | IC50 at 48 h [3, 9]: 16 ± 0.73 µM
7 | CC1=C(CO)C(=O)OC(C(C)C2=CCC3C4CC(O)C56C=CC(OO5)C(=O)C6(C)C4CCC23C)C1 (stereo not drawn) [Compound 4, 6β,27-Dihydroxy-2α,5α-dioxan-1-oxo-witha-3,16,24-trien-26,22-olide] | 5.1 | 6.2 ± 0.1 µM | – | IC50 at 48 h [3, 9]: 31.6 ± 0.08 µM
8 | CC1=C(CO)C(=O)OC(C(C)C2=CCC3C4CC=C5C(O)C=CC(=O)C5(C)C4CCC23C)C1 (stereo not drawn) [Compound 5, 4β,27-dihydroxy-1-oxo-witha-2,5,16,24-tetraenolide] | 0.8 | 8.2 ± 0.09 µM | 6.4 ± 0.12 µM | –
9 | CC1=C(C)C(=O)OC(C(C)C2=CCC3C4CC=C5C(O)C=CC(=O)C5(C)C4CCC23C)C1 (stereo not drawn) [Compound 6, 4β-hydroxy-1-oxo-witha-2,5,16,24-tetraenolide] | 1.6 | 7 ± 0.55 µM | 11.5 ± 0.09 µM | –
10 | CC1=C(CO)C(=O)OC(C(C)C2CCC3C4CC=C5C(O)C=CC(=O)C5(C)C4CCC23C)C1 (stereo not drawn) [Compound 7, 4β,27-dihydroxy-1-oxo-witha-2,5,24-trien olide] | >2.6 | 15.7 ± 0.04 µM | > 40 µM | –
11 | CC1=C(CO)C(=O)OC(C(C)C2=CCC3C4CC=C5C(=O)C=CC(=O)C5(C)C4CCC23C)C1 (stereo not shown) [Compound 8, 27-hydroxy-1,4-dioxo-witha-2,5,16,24-tetraenolide] | 3.7 | 4.2 ± 0.25 µM | 15.5 ± 0.35 µM | –
12 | CC1=C(CO)C(=O)OC(C(C)C2(O)CCC3C4CC=C5C(O)C=CC(=O)C5(C)C4CCC32C)C1 (stereo not drawn) [Compound 12, 4α,17α,27-trihydroxy-1-oxo-witha-2,5,24-trienolide] | >6.1 | 6.6 ± 0.14 µM | > 40 µM | fold more potent than the β-disposition (13) ([1]; HL-60, versus 13): 2 fold
13 | CC1=C(CO)C(=O)OC(C(C)C2(O)CCC3C4CC=C5C(O)C=CC(=O)C5(C)C4CCC32C)C1 (stereo not drawn) [Compound 13, 4β,17α,27-trihydroxy-1-oxo-witha-2,5,24-trienolide] | 1.9 | – | – | IC50 [5]: 23.8 ± 0.41 µM; IC50 [6]: 12.3 ± 0.11 µM
14 | CC1=C(CO)C(=O)O[C@@H]([C@@H](C)[C@H]2CC[C@H]3[C@@H]4C[C@H]5O[C@]56[C@@H](O)C=CC(=O)[C@]6(C)[C@H]4CC[C@]23C)C1 [Compound 14, withaferin A] | 33.0 | – | – | IC50 [1, 7]: 0.2 ± 0.02 µM; IC50 ([1]; read-out: Cytotoxic activity IC50, HL 60, MTT, 48 h incubation, listed as WA): ≤ 0.5 µM; IC50 at 48 h [3, 9]: 6.4 ± 0.21 µM
15 | CC1=C(C)C(=O)OC(C(C)C2CCC3C4CC5OC56C(O)C=CC(=O)C6(C)C4CCC23C)C1 (stereo not drawn) [Compound 15, 5β,6β-epoxy-4β-hydroxy-1-oxo-witha-2,24-dienolide] | – | ≤ 0.5 µM | 4.6 ± 0.09 µM | IC50 [6]: 0.5 ± 0.07 µM
16 | CC(=O)OCC1=C(C)CC(C(C)C2CCC3C4CC5OC56C(O)C=CC(=O)C6(C)C4CCC23C)OC1=O (stereo not shown) [Compound 16, 27-acetyl-withaferin A] | – | ≤ 0.5 µM | 5.7 ± 0.13 µM | IC50 [6]: 0.4 ± 0.06 µM
17 | CC1=C(CO)C(=O)OC(C(C)=C2C(O)CC3C4CC5OC56C(O)C=CC(=O)C6(C)C4CCC23C)C1 (stereo not drawn) [Compound 18, 5β,6β-epoxy-4β,16β,27-trihydroxy-1-oxo-witha-2,17(20),24-trienolide] | 4.2 | 8.2 ± 0.43 µM | 34.7 ± 0.75 µM | –
18 | CC1=C(CO)C(=O)O[C@@H]([C@@H](C)C2=CC[C@H]3[C@@H]4C[C@H]5O[C@]56[C@@H](O)C=CC(=O)[C@]6(C)[C@H]4CC[C@]23C)C1 [Compound 19, witharistatin] | 3.8 | ≤ 0.5 µM | – | IC50 at 48 h [4]: 1.9 ± 0.08 µM; IC50 [6]: 0.5 ± 0.05 µM
19 | CC1=C(C)C(=O)OC(C(C)C2=CCC3C4CC5OC56C(O)C=CC(=O)C6(C)C4CCC23C)C1 (stereo not shown) [Compound 20, 27-deoxy-16-en-withaferin A] | 2.2 | 4.6 ± 0.35 µM | 10 ± 0.61 µM | –
20 | CC1=C(C)C(=O)OC(C(C)C2CC=C3C4CC5OC56C(O)C=CC(=O)C6(C)C4CCC32C)C1 (stereo not drawn) [Compound 21, 5β,6β-epoxy-4β-hydroxy-1-oxo-22R-witha-2,14,24-trienolide] | 6.9 | 0.9 ± 0.05 µM | 6.2 ± 0.11 µM | –
21 | CC1=C(CO)C(=O)OC(C(C)C2CCC3C4CC5OC56C(=O)C=CC(=O)C6(C)C4CCC23C)C1 (stereo not shown) [Compound 22, 4-dehydro-withaferin A] | 24.1 | 0.7 ± 0.09 µM | 16.9 ± 0.7 µM | –
22 | CC1=C(CO)C(=O)OC(C(C)C2(O)CCC3C4CC5OC56C(O)C=CC(=O)C6(C)C4CCC32C)C1 (stereo not drawn) [Compound 23, 5β,6β-epoxy-4β,17α,27-trihydroxy-1-oxo-witha-2,24-dienolide] | >6.2 | 6.5 ± 0.55 µM | > 40 µM | –
23 | CC1=C(CO)C(=O)O[C@@H]([C@@H](C)[C@H]2CC[C@H]3[C@@H]4C[C@H]5O[C@]56[C@@H](O)[C@@H](O)CC(=O)[C@]6(C)[C@H]4CC[C@]23C)C1 [Compound 24, viscosalactone B] | – | > 40 µM | – | IC50 at 48 h [3, 9]: > 40 µM
24 | CC(=O)OCC1=C(C)CC(C(C)C2CCC3C4CC5OC56C(O)C(O)CC(=O)C6(C)C4CCC23C)OC1=O (stereo not shown) [Compound 25, 27-O-acetyl-viscosalactone B] | 7.9 | 1.5 ± 0.54 µM | 11.8 ± 0.1 µM | fold more potent than its corresponding hydroxyl derivative 24 ([1]; HL-60 cytotoxic effect, versus 24): 26 fold
25 | CC1=C(CO)C(=O)OC(C(C)C2CCC3C4CC(O)C5(O)C(O)C=CC(=O)C5(C)C4CCC23C)C1 (stereo not shown) [Compound 26, 2,3-dehydrosomnifericin] | >3.0 | 13.4 ± 0.85 µM | > 40 µM | –
26 | CC1=C(CO)C(=O)OC(C(C)C2CCC3C4CC(Cl)C5(O)C(O)C=CC(=O)C5(C)C4CCC23C)C1 (stereo not drawn) [Compound 27, 6α-chloro-5β-hydroxywithaferin A] | 7.1 | 1.1 ± 0.2 µM | 7.8 ± 0.36 µM | fold more potent than its corresponding hydroxyl derivative 26 ([1]; HL-60 cytotoxic effect, versus 26): 12 fold
27 | CC1=C(CO)C(=O)OC(C(C)C2CCC3C4CC(O)C5(C=O)C=CC(=O)C5(C)C4CCC23C)C1 (stereo not drawn) [Compound 28, 4β-formyl-6β,27-dihydroxy-1-oxo-witha-2,24-dienolide] | >1.3 | 30.5 ± 0.45 µM | – | IC50 at 48 h [3]: > 40 µM
28 | CC1=C(CO)C(=O)OC(C(C)C2CCC3C4CC(O)C5(C=O)CCC(=O)C5(C)C4CCC23C)C1 (stereo not drawn) [Compound 29, 4β-formyl-6β,27-dihydroxy-1-oxo-witha-24-enolide] | >2.1 | 19.2 ± 0.84 µM | – | IC50 at 48 h [3, 9]: > 40 µM
29 | COc1cc([C@@H]2c3cc4c(cc3[C@@H](O[C@@H]3O[C@@H]5CO[C@@H](C)O[C@H]5[C@H](O)[C@H]3O)[C@H]3COC(=O)[C@H]23)OCO4)cc(OC)c1O [Etoposide, reference compound] | 8.2 | 2.4 ± 0.1 µM | – | IC50 at 48 h [3, 9]: 19.5 ± 0.16 µM
